# Measured values from patent publication US8552013B2, “Heterocyclic compounds based on N6-substituted adenine, methods of their preparation, their use for preparation of drugs, cosmetic preparations and growth regulators, pharmaceutical preparations, cosmetic preparations and growth regulators containing these compounds” (USTAV Experimentalni Botaniky Akademie Ved Ceske Republiky, priority 2001, dated 2013).
# What was measured:
# [1] = test system: human diploid fibroblasts (HCA cells); assay: Senescence, beta-galactosidase staining of human diploid fibroblasts; type: cell-based; details: for SENESCENT CELLS (%) HCA25: passage 25; for SENESCENT CELLS (%) HCA45: passage 45; for SENESCENT CELLS (%) HCA80: passage 80
# Method: In this example, human diploid fibroblasts (HCA cells of various passage levels: passage 25—designated HCA25; passage 45—designated HCA45; passage 80—designated HCA80) were stained for β-galactosidase activity. The medium used for cell cultivation was removed, the cells were washed twice in […], and fixed in 2-3 ml of fixing solution comprised of a 2% formaldehyde and 0.2% glutaraldehyde in PBS. The cells were incubated at room temperature for 5 minutes, then washed twice with PBS. The cells were subsequently incubated at 37° C. (without CO2) for 1 to 16 hours in 2-3 ml of a solution comprising potassium ferricyanide (5 mM), potassium ferrocyanide (5 mM), MgCl2 (2 mM), X-gal (5-bromo-4-chloro-3-indolyl-β-D-galactopyranoside) (1 mg/ml), in citric/phosphate buffer, pH 6.0). […] In this experiment, senescent cells, but not other cells were stained blue due to the action of β-galactosidase on the substrate (FIG. 4).
# [2] = test system: Triticum aestivum cv. Hereward leaf tips; assay: Retention of chlorophyll in excised wheat leaf tips; type: in vivo; details: for Activity (%) [10^−4 mol · l^−1 BAP = 100%]: chlorophyll retention at the concentration with highest activity
# Method: Seeds of winter wheat, Triticum aestivum cv. Hereward, were washed under running water for 24 hours and then sown on vermiculite soaked with Knop's solution. They were placed in the grown chamber at 25° C. with a 16/8 h light period at 50 μmol.m^−2.s^−1. After 7 days, the first leaf was fully developed and the second leaf had started to grow. A tip section of the first leaf, approximately 35 mm long, was removed from 5 seedlings and trimmed slightly to a combined weight of 100 mg. The basal ends of the five leaf tips were placed in the wells of a microtiter polystyrene plate containing 150 μl of a cytokinin solution each. The entire plate was inserted into a plastic box lined with paper tissues soaked in distilled water to prevent leaf sections from drying out. After a 96 h incubation in the dark at 25° C., the leaves were removed and chlorophyll extracted by heating at 80° C. for 10 min in 5 ml of 80% ethanol (v/v). The sample volume was then restored to 5 ml by the addition of 80% ethanol (v/v). The absorbency of the extract was recorded at 665 nm. In addition, chlorophyll extracts from fresh leaves and leaf tips incubated in deionised water were measured. From the obtained data, the concentration with highest activity was selected for each compound tested. Relative activity of the compound at this concentration was calculated (Tab. 6). The activity obtained for 10^−4 M 6-benzylaminopurine (BAP) was postulated as 100%. The values shown are means of five replicates and the whole experiment was repeated twice. The cytokinins to be tested were dissolved in dimethylsulfoxide (DMSO) and the solution brought up to 10^−3M with distilled water. This stock was further diluted in distilled water to concentrations ranging from 10^−8M to 10^−4M.
SMILES,SENESCENT CELLS (%) HCA25 [1] [%],SENESCENT CELLS (%) HCA45 [1] [%],SENESCENT CELLS (%) HCA80 [1] [%],Activity (%) [10^−4 mol · l^−1 BAP = 100%] [2],"concentration with highest activity ([2]; wheat leaf tips, 96 h in the dark)"
"NCc1ccc(Cl)c(N)c1N [2,3-diamino-4-chlorobenzylamine]",4,3,17,–,–
"Oc1c(Cl)ccc(CNc2ncnc3nc[nH]c23)c1O [2,3-dihydroxy-4-chlorobenzylamino, 6-(2,3-dihydroxy-4-chlorobenzylamino)purine]",3,3,14,–,–
"COc1ccc(CNc2ncnc3nc[nH]c23)c(O)c1O [2,3-dihydroxy-4-methoxybenzylamino, 6-(2,3-dihydroxy-4-methoxybenzylamino)purine]",3,4,17,–,–
"Oc1cc(CNc2ncnc3nc[nH]c23)c(O)cc1Cl [2,5-dihydroxy-4-chlorobenzylamino, 6-(2,5-dihydroxy-4-chlorobenzylamino)purine]",5,4,23,–,–
"COc1cc(O)c(CNc2ncnc3nc[nH]c23)cc1O [2,5-dihydroxy-4-methoxybenzylamino, 6-(2,5-dihydroxy-4-methoxybenzylamino)purine]",5,3,22,–,–
"Oc1cc(Cl)cc(O)c1CNc1ncnc2nc[nH]c12 [2,6-dihydroxy-4-chlorobenzylamino, 6-(2,6-dihydroxy-4-chlorobenzylamino)purine]",3,3,16,–,–
"COc1cc(O)c(CNc2ncnc3nc[nH]c23)c(O)c1 [2,6-dihydroxy-4-methoxybenzylamino, 6-(2,6-dihydroxy-4-methoxybenzylamino)purine]",4,3,13,–,–
"CC(=O)Oc1ccccc1CNc1ncnc2nc[nH]c12 [2-acetoxybenzylamino, 6-(2-acetoxybenzylamino)purine]",6,5,32,–,–
"CC(=O)c1ccccc1CNc1ncnc2nc[nH]c12 [2-acetylbenzylamino, 6-(2-acetylbenzylamino)purine]",3,4,25,–,–
Nc1nc(NCc2cccc(O)c2)c2[nH]cnc2n1 [2-amino-6-(3-hydroxybenzylamino)purine],–,–,–,121 (±7) %,–
"Nc1cccc(Cl)c1CNc1ncnc2nc[nH]c12 [2-amino-6-chlorobenzylamine, 6-(2-amino-6-chlorobenzylamino)purine]",3,4,16,–,–
Oc1cccc(CNc2nc(Cl)nc3nc[nH]c23)c1 [2-chlor-6-(3-hydroxybenzylamino)purine],–,–,–,140 (±13) %,10^−4 mol · l^−1
"Oc1c(Cl)cccc1CNc1ncnc2nc[nH]c12 [2-hydroxy-3-chlorobenzylamino, 6-(2-hydroxy-3-chloroxybenzylamino)purine]",4,3,14,–,–
